Measured values: the supplement of paper PMC11061612

Assays:
Experiment in all cases: combination Emax (second highest fraction inhibited in the dose matrix, 72 h); higher = more inhibition; extreme values may be limits of the assay
[1] = tested on: NCI-H23 (Lung Adenocarcinoma)
Outline: (§1)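 Cell lines in DMEM/F12 or RPMI with 10% FBS were plated in 1536-well plates, held 24 hours at 37°C, 5% CO2, then given two-drug dose matrices for 72 hours (DMSO typically 0.2%). Viability was read by CellTiter-Glo 2.0 luminescence and scaled as inhibition from 0 (vehicle wells) to 1 (blank wells). Combination Emax is the second-highest inhibition in the matrix; Bliss excess is observed combination effect minus expected EA + EB − EA·EB, EA and EB being single-agent effects.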

WM793B (Melanoma) = tested on: WM793B (Melanoma)
Outline: as §1

[2] = tested on: HCT-15 (Colorectal Carcinoma)
Outline: as §1

[3] = tested on: L-1236 (Hodgkin's Lymphoma)
Outline: as §1

SF539 (Glioblastoma) = tested on: SF539 (Glioblastoma)
Outline: as §1

[4] = tested on: COLO-680N (Esophageal Squamous Cell Carcinoma)
Outline: as §1

Structure (SMILES) | combination Emax [1] | combination Emax (WM793B (Melanoma)) | combination Emax [2] | combination Emax [3] | combination Emax (SF539 (Glioblastoma)) | combination Emax [4]
CC1(C)CCC(CN2CCN(c3ccc(C(=O)NS(=O)(=O)c4ccc(NCC5CCOCC5)c([N+](=O)[O-])c4)c(Oc4cnc5[nH]ccc5c4)c3)CC2)=C(c2ccc(Cl)cc2)C1 [Venetoclax] + C=CCn1c(=O)c2cnc(Nc3ccc(N4CCN(C)CC4)cc3)nc2n1-c1cccc(C(C)(C)O)n1 [AZD1775] (first compound max 1 µM, partner max 1 µM) | 0.855 | 0.531 | 0.47 | 0.865 | 0.972 | 0.257
COc1cccc(OCCCN)c1-c1cc(Nc2cnc(C#N)cn2)n[nH]1 [Prexasertib] + C[C@@H]1COCCN1C2=NC(=NC(=C2)C3(CC3)[S@](=N)(=O)C)C4=C5C=CNC5=NC=C4 [AZD6738] (first compound max 1 µM, 7x7, partner max 10 µM) | 0.884 | 0.907 | 0.95 | 0.799 | 0.972 | 0.416
Cc1c2c(nn1C)CSCc1cc(n(C)n1)CSc1cc(c3ccccc3c1)OCCCc1c(C(=O)O)n(C)c3c-2c(Cl)ccc13 [AZD5991] + CC1(C)CCC(CN2CCN(c3ccc(C(=O)NS(=O)(=O)c4ccc(NCC5CCOCC5)c([N+](=O)[O-])c4)c(Oc4cnc5[nH]ccc5c4)c3)CC2)=C(c2ccc(Cl)cc2)C1 [Venetoclax] (first compound max 1 µM, 7x7, partner max 1 µM) | 0.899 | 0.261 | 0.182 | 0.764 | 0.544 | 0.0971
C=CCn1c(=O)c2cnc(Nc3ccc(N4CCN(C)CC4)cc3)nc2n1-c1cccc(C(C)(C)O)n1 [AZD1775] + C[C@@H]1COCCN1C2=NC(=NC(=C2)C3(CC3)[S@](=N)(=O)C)C4=C5C=CNC5=NC=C4 [AZD6738] (first compound max 1 µM, partner max 10 µM) | 0.913 | 0.875 | 0.933 | 0.782 | 1 | 0.529
Cc1c2c(nn1C)CSCc1cc(n(C)n1)CSc1cc(c3ccccc3c1)OCCCc1c(C(=O)O)n(C)c3c-2c(Cl)ccc13 [AZD5991] + C1CN(CCC1(C(=O)N[C@@H](CCO)C2=CC=C(C=C2)Cl)N)C3=NC=NC4=C3C=CN4 [Capivasertib] (first compound max 1 µM, 7x7, partner max 3 µM) | 0.899 | 0.31 | 0.209 | 0.42 | 0.573 | 0.139
CC1(C)CCC(CN2CCN(c3ccc(C(=O)NS(=O)(=O)c4ccc(NCC5CCOCC5)c([N+](=O)[O-])c4)c(Oc4cnc5[nH]ccc5c4)c3)CC2)=C(c2ccc(Cl)cc2)C1 [Venetoclax] + C[C@@H]1COCCN1C2=NC(=NC(=C2)C3(CC3)[S@](=N)(=O)C)C4=C5C=CNC5=NC=C4 [AZD6738] (first compound max 1 µM, 7x7, partner max 10 µM) | 0.822 | 0.814 | 0.71 | 0.847 | 0.87 | 0.278
Cc1c2c(nn1C)CSCc1cc(n(C)n1)CSc1cc(c3ccccc3c1)OCCCc1c(C(=O)O)n(C)c3c-2c(Cl)ccc13 [AZD5991] + C[C@@H](Nc1cc(F)cc(F)c1)c1cc(C(=O)N(C)C)cc2c(=O)cc(N3CCOCC3)oc12 [AZD8186] (first compound max 1 µM, 7x7, partner max 3 µM) | 0.896 | 0.419 | 0.194 | 0.291 | 0.438 | 0.215
COc1cccc2c1C(=O)c1c(O)c3c(c(O)c1C2=O)C[C@@](O)(C(=O)CO)C[C@@H]3O[C@H]1C[C@H](N)[C@H](O)[C@H](C)O1 [Doxorubicin] + Cc1cc2ncnn2cc1Nc1ncc2c(n1)n(C1CCOCC1)c(=O)n2C [AZD7648] (first compound max 1 µM, 7x7, partner max 10 µM) | 0.588 | 0.801 | 0.742 | 0.682 | 0.934 | 0.67
CC1(C)CCC(CN2CCN(c3ccc(C(=O)NS(=O)(=O)c4ccc(NCC5CCOCC5)c([N+](=O)[O-])c4)c(Oc4cnc5[nH]ccc5c4)c3)CC2)=C(c2ccc(Cl)cc2)C1 [Venetoclax] + CCN(CCO)CCCOc1ccc2c(Nc3cc(CC(=O)Nc4cccc(F)c4)[nH]n3)ncnc2c1 [AZD2811] (first compound max 1 µM, 7x7, partner max 1 µM) | 0.184 | 0.258 | 0.178 | 0.718 | 0.481 | 0.187
Cc1c2c(nn1C)CSCc1cc(n(C)n1)CSc1cc(c3ccccc3c1)OCCCc1c(C(=O)O)n(C)c3c-2c(Cl)ccc13 [AZD5991] + Cc1cc2ncnn2cc1Nc1ncc2c(n1)n(C1CCOCC1)c(=O)n2C [AZD7648] (first compound max 1 µM, 7x7, partner max 10 µM) | 0.934 | 0.32 | 0.251 | 0.426 | 0.41 | 0.19
CCN(CCO)CCCOc1ccc2c(Nc3cc(CC(=O)Nc4cccc(F)c4)[nH]n3)ncnc2c1 [AZD2811] + C=CCn1c(=O)c2cnc(Nc3ccc(N4CCN(C)CC4)cc3)nc2n1-c1cccc(C(C)(C)O)n1 [AZD1775] (first compound max 1 µM, partner max 1 µM) | 0.829 | 0.497 | 0.743 | 0.74 | 1 | 0.178
Cc1c2c(nn1C)CSCc1cc(n(C)n1)CSc1cc(c3ccccc3c1)OCCCc1c(C(=O)O)n(C)c3c-2c(Cl)ccc13 [AZD5991] + C=CCn1c(=O)c2cnc(Nc3ccc(N4CCN(C)CC4)cc3)nc2n1-c1cccc(C(C)(C)O)n1 [AZD1775] (first compound max 1 µM, partner max 1 µM) | 0.966 | 0.582 | 0.557 | 0.824 | 1 | 0.287
CN(CCO)CC[C@H](CSc1ccccc1)Nc1ccc(S(=O)(=O)NC(=O)c2ccc(N3CCC([C@@H](O)c4ccccc4-c4ccc(Cl)cc4)CC3)cc2)cc1S(=O)(=O)C(F)(F)F [AZD4320] + C1CN(CCC1(C(=O)N[C@@H](CCO)C2=CC=C(C=C2)Cl)N)C3=NC=NC4=C3C=CN4 [Capivasertib] (first compound max 1 µM, 7x7, partner max 3 µM) | 0.093 | 0.281 | 0.174 | 0.965 | 0.461 | 0.0496
Cc1c2c(nn1C)CSCc1cc(n(C)n1)CSc1cc(c3ccccc3c1)OCCCc1c(C(=O)O)n(C)c3c-2c(Cl)ccc13 [AZD5991] + CN(C)CCCOc1ccc(-c2ccc3ncc4c(c3c2)n(C2CCOCC2)c(=O)n4C)cn1 [AZD0156] (first compound max 1 µM, 7x7, partner max 1 µM) | 0.913 | 0.305 | 0.197 | 0.331 | 0.302 | 0.219
CC1(C)CCC(CN2CCN(c3ccc(C(=O)NS(=O)(=O)c4ccc(NCC5CCOCC5)c([N+](=O)[O-])c4)c(Oc4cnc5[nH]ccc5c4)c3)CC2)=C(c2ccc(Cl)cc2)C1 [Venetoclax] + CN(C)CCCOc1ccc(-c2ccc3ncc4c(c3c2)n(C2CCOCC2)c(=O)n4C)cn1 [AZD0156] (first compound max 1 µM, 7x7, partner max 1 µM) | 0.122 | 0.244 | 0.226 | 0.705 | 0.292 | 0.173
COc1cccc(OCCCN)c1-c1cc(Nc2cnc(C#N)cn2)n[nH]1 [Prexasertib] + Cc1cc2ncnn2cc1Nc1ncc2c(n1)n(C1CCOCC1)c(=O)n2C [AZD7648] (first compound max 1 µM, 7x7, partner max 10 µM) | 0.889 | 0.866 | 0.935 | 0.776 | 0.985 | 0.37
C=CCn1c(=O)c2cnc(Nc3ccc(N4CCN(C)CC4)cc3)nc2n1-c1cccc(C(C)(C)O)n1 [AZD1775] + O=C(c1cc(Cc2n[nH]c(=O)c3ccccc23)ccc1F)N1CCN(C(=O)C2CC2)CC1 [Olaparib] (first compound max 1 µM, partner max 10 µM) | 0.761 | 0.501 | 0.443 | 0.746 | 1 | 0.283
CC1(C)CCC(CN2CCN(c3ccc(C(=O)NS(=O)(=O)c4ccc(NCC5CCOCC5)c([N+](=O)[O-])c4)c(Oc4cnc5[nH]ccc5c4)c3)CC2)=C(c2ccc(Cl)cc2)C1 [Venetoclax] + Cc1cc2ncnn2cc1Nc1ncc2c(n1)n(C1CCOCC1)c(=O)n2C [AZD7648] (first compound max 1 µM, 7x7, partner max 10 µM) | 0.184 | 0.309 | 0.229 | 0.621 | 0.341 | 0.161
